Marks after values point to notes of the source that are not given here.
What was measured:
[1] = set-up: method as in earlier work; conditions: PBPK model parameter, ref [17, 18] and Drugbank, cited from earlier work
[2] = population PK model estimate, mice
[3] = In vivo pharmacokinetic study in mice, intravenous ibrutinib (plasma); conditions: female wild-type FVB mice, ibrutinib 1 mg/kg IV; for PCI-45227 AUC(0-last) / PCI-45227 Cmax: mean (SD)
Experimental: (§1) Experiments were performed with male and female mice from inbred wild-type strains (FVB, C57BL/6, DBA) or with age- and sex-matched genetically engineered mice with a deficiency of the Cyp3a locus [(8 genes; FVB.129P2-Cyp3a13^tm1Ahs Del (5Cyp3a57-Cyp3a59)1Ahs); ref. [16]; CYP3A^−/−], a deficiency of the intestinal transporter OATP2B1 (ref. [17]; OATP2B1 ^−/−), or the hepatic transporter OATP1B2 (ref. [18]; OATP1B2 ^−/−). […] The studies were approved by the University Laboratory Animal Resources Animal Care and Use Committee at The Ohio State University (Columbus, OH). […] For in vivo studies, drugs were prepared in standard vehicles ([19, 20]). Details regarding the preparation of drugs are provided in the Supplementary Methods.
(§2) Pharmacokinetic studies were performed as described previously ([21]). Further details are provided in the Supplementary Methods.
(§3) The lower limit of quantification was 5 ng/mL, using 5-μL sample volumes. Details regarding the analytic method are provided in the Supplementary Methods.
(§4) Ketoconazole was prepared for oral administration as a 10-mg/mL suspension in PEG400, and cobicistat as a 6-mg/mL suspension in corn oil.
(§5) Pharmacokinetic studies were performed as previously described.

[4] = set-up: method as in earlier work; conditions: PBPK model parameter, ref [17, 18] and Drugbank, cited from earlier work; remark: listed apart in the source
[5] = In vivo pharmacokinetic study in mice, oral ibrutinib (plasma, LC-MS/MS)
Experimental: as §1, §2, §3, §4, §5
The analytical equipment consisted of a Vanquish UHPLC system, a TSQ Quantum Ultra triple quadrupole mass spectrometer from Thermo Fisher Scientific, and Thermo Trace Finder General Quan system software (version 3.3). An Accucore Vanquish C18 column (100 × 2.1 mm, dp = 1.5 μm; Thermo Fisher Scientific) was protected by a corresponding XBridgeBEH C18, 5-μm guard column. The injection volume of sample was 5.0 μL. The temperature of the autosampler rack was 4 °C, and the temperature of the column was 40 °C. Mobile phase A consisted of water with 0.1% (v/v) formic acid and mobile phase B consisted of acetonitrile: methanol (1:3) with 0.1% (v/v) formic acid. The total run time was 5 min. The mobile phase was delivered at a flow rate of 0.4 mL/min, and the optimized gradient contained time-varying amounts of mobile phase B, as follows: 0-0.5 min, 10% B; 0.5-1.5 min, 95% B; 1.5-2.9 min, 95% B; 2.9-3.0 min, 10% B; and 3.0-5.0 min, 10% B. The mass spectrometric assay settings included a positive voltage applied to the ESI capillary of 3500 V, a capillary temperature of 342 °C, and a vaporizer temperature of 358 °C. Argon was used a collision gas at a pressure of 1.5 mTorr. […] For sample extraction by protein precipitation, 5 µL of plasma, 5 µL of microsomal suspension, or 10 µL of homogenized tissue were added to a tube containing 60 µL of internal standard solution and 20 µL of methanol. Samples were then vortex-mixed, centrifuged at 13,000 rpm for 9.5 min, and supernatants collected and stored frozen until analysis. […] The lower limit of quantification was 5 ng/mL, using 5-µL sample volumes.

[6] = set-up: method as in earlier work; conditions: PBPK model parameter, ref [17, 18] and Drugbank, cited from earlier work; remark: listed apart in the source
[7] = female CYP3A-/- mice, ibrutinib 10 mg/kg oral, no cotreatment, mean (SE)
[8] = female OATP1B2(-/-) mice, ibrutinib 10 mg/kg PO, no co-treatment, mean (SD)
[9] = female OATP2B1(-/-) mice, ibrutinib 10 mg/kg PO, no co-treatment, mean (SD)
[10] = female wild-type C57BL/6 mice, ibrutinib 10 mg/kg PO, no co-treatment, mean (SD)
[11] = female wild-type DBA mice, ibrutinib 10 mg/kg PO, no co-treatment, mean (SD)
[12] = female wild-type FVB mice, ibrutinib 4 mg/kg oral, cotreatment cobicistat 30 mg/kg, mean (SE)
[13] = female wild-type FVB mice, ibrutinib 10 mg/kg oral single dose, cotreatment cobicistat 30 mg/kg, mean (SE)
[14] = female wild-type FVB mice, ibrutinib 10 mg/kg oral single dose, cotreatment corn oil, mean (SE)
[15] = female wild-type FVB mice, ibrutinib 10 mg/kg oral, cotreatment PEG400, mean (SE)
[16] = female wild-type FVB mice, ibrutinib 10 mg/kg oral, cotreatment cobicistat 30 mg/kg, steady-state, mean (SE)
[17] = female wild-type FVB mice, ibrutinib 10 mg/kg oral, cotreatment corn oil, steady-state, mean (SE)
[18] = female wild-type FVB mice, ibrutinib 10 mg/kg oral, cotreatment ketoconazole 50 mg/kg, mean (SE)
[19] = female wild-type FVB mice, ibrutinib 10 mg/kg oral, no cotreatment, mean (SE)
[20] = female wild-type FVB mice, ibrutinib 30 mg/kg oral, no cotreatment, mean (SE)
[21] = male OATP2B1(-/-) mice, ibrutinib 10 mg/kg PO, no co-treatment, mean (SD)
[22] = male wild-type C57BL/6 mice, ibrutinib 10 mg/kg PO, no co-treatment, mean (SD)
[23] = male wild-type FVB mice, ibrutinib 10 mg/kg PO, co-treatment No Vehicle (cobicistat experiment), mean (SD)
[24] = male wild-type FVB mice, ibrutinib 10 mg/kg PO, co-treatment None (ketoconazole experiment), mean (SD)
[25] = male wild-type FVB mice, ibrutinib 10 mg/kg PO, co-treatment PEG400, mean (SD)
[26] = male wild-type FVB mice, ibrutinib 10 mg/kg PO, co-treatment cobicistat, mean (SD)
[27] = male wild-type FVB mice, ibrutinib 10 mg/kg PO, co-treatment corn oil, mean (SD)
[28] = male wild-type FVB mice, ibrutinib 10 mg/kg PO, co-treatment ketoconazole, mean (SD)

- IIV CLm ([2]; inter-individual variability): 0.0242
- IIV Vm ([2]; inter-individual variability): 1.38
- Fmet (metabolism of PCI-45227) [2]: 0.0216
- Vm (volume of distribution for the central compartment of PCI-45227) [2]: 0.0578
- RV PCI ([2]; residual variability): 0.730
- PCI-45227: Parent AUC Ratio ([3]; co-treatment cobicistat): 0.04
- PCI-45227 AUC(0-last) ([3]; co-treatment cobicistat): 38 (27) ng*hr/mL
- PCI-45227 Cmax ([3]; co-treatment cobicistat): 25 (11) ng/mL
- PCI-45227 AUC(0-last) ([3]; co-treatment corn oil): 311 (15) ng*hr/mL
- PCI-45227 Cmax ([3]; co-treatment corn oil): 197 (5) ng/mL
- levels of PCI-45227 ([5]; CYP3A-/- mice, oral ibrutinib): almost undetectable levels
- PCI-45227: Ibrutinib AUC ratio ([5]; female CYP3A-/- mice, ibrutinib 10 mg/kg oral, no cotreatment): 0.003
- PCI-45227 AUC(0-last) [5, 7]: 6.3 (1.7)^c ng/h/mL
- PCI-45227 Cmax [5, 7]: 8.2 (2.1)^c ng/mL
- PCI-45227: Parent AUC Ratio ([5]; female OATP1B2(-/-) mice, ibrutinib 10 mg/kg PO, no co-treatment): 0.14
- PCI-45227 AUC(0-last) [5, 8]: 304 (12) ng*hr/mL
- PCI-45227 Cmax [5, 8]: 157 (9) ng/mL
- PCI-45227: Parent AUC Ratio ([5]; female OATP2B1(-/-) mice, ibrutinib 10 mg/kg PO, no co-treatment): 1.1
- PCI-45227 AUC(0-last) [5, 9]: 1952 (168)** ng*hr/mL
- PCI-45227 Cmax [5, 9]: 745 (115)** ng/mL
- PCI-45227: Parent AUC Ratio ([5]; female wild-type C57BL/6 mice, ibrutinib 10 mg/kg PO, no co-treatment): 2.1
- PCI-45227 AUC(0-last) [5, 10]: 3007 (236) ng*hr/mL
- PCI-45227 Cmax [5, 10]: 1373 (70) ng/mL
- PCI-45227: Parent AUC Ratio ([5]; female wild-type DBA mice, ibrutinib 10 mg/kg PO, no co-treatment): 0.12
- PCI-45227 AUC(0-last) [5, 11]: 343 (52) ng*hr/mL
- PCI-45227 Cmax [5, 11]: 234 (47) ng/mL
- PCI-45227: Ibrutinib AUC ratio ([5]; female wild-type FVB mice, ibrutinib 4 mg/kg oral, cotreatment cobicistat 30 mg/kg): 0.05
- PCI-45227 AUC(0-last) [5, 12]: 56 (22)^c ng/h/mL
- PCI-45227 Cmax [5, 12]: 30.7 (12.1)^c ng/mL
- PCI-45227: Ibrutinib AUC ratio ([5]; female wild-type FVB mice, ibrutinib 10 mg/kg oral single dose, cotreatment cobicistat 30 mg/kg): 0.05
- PCI-45227 AUC(0-last) [5, 13]: 139 (56)^c ng/h/mL
- PCI-45227 Cmax [5, 13]: 45 (14)^c ng/mL
- PCI-45227: Ibrutinib AUC ratio ([5]; female wild-type FVB mice, ibrutinib 10 mg/kg oral single dose, cotreatment corn oil): 2.0
- PCI-45227 AUC(0-last) [5, 14]: 563 (91)^d ng/h/mL
- PCI-45227 Cmax [5, 14]: 219 (61)^b ng/mL
- PCI-45227: Ibrutinib AUC ratio ([5]; female wild-type FVB mice, ibrutinib 10 mg/kg oral, cotreatment PEG400): 0.87
- PCI-45227 AUC(0-last) [5, 15]: 668 (155) ng/h/mL
- PCI-45227 Cmax [5, 15]: 246 (54) ng/mL
- PCI-45227: Ibrutinib AUC ratio ([5]; female wild-type FVB mice, ibrutinib 10 mg/kg oral, cotreatment cobicistat 30 mg/kg, steady-state): 0.25
- PCI-45227 AUC(0-last) [5, 16]: 560 (73)^b ng/h/mL
- PCI-45227 Cmax [5, 16]: 211 (65) ng/mL
- PCI-45227: Ibrutinib AUC ratio ([5]; female wild-type FVB mice, ibrutinib 10 mg/kg oral, cotreatment corn oil, steady-state): 2.0
- PCI-45227 AUC(0-last) [5, 17]: 917 (128) ng/h/mL
- PCI-45227 Cmax [5, 17]: 405 (74) ng/mL
- PCI-45227: Ibrutinib AUC ratio ([5]; female wild-type FVB mice, ibrutinib 10 mg/kg oral, cotreatment ketoconazole 50 mg/kg): 0.08
- PCI-45227 AUC(0-last) [5, 18]: 682 (250) ng/h/mL
- PCI-45227 Cmax [5, 18]: 288 (89) ng/mL
- PCI-45227: Ibrutinib AUC ratio ([5]; female wild-type FVB mice, ibrutinib 10 mg/kg oral, no cotreatment): 2.5
- PCI-45227 AUC(0-last) [5, 19]: 765 (79) ng/h/mL
- PCI-45227 Cmax [5, 19]: 447 (45) ng/mL
- PCI-45227: Ibrutinib AUC ratio ([5]; female wild-type FVB mice, ibrutinib 30 mg/kg oral, no cotreatment): 1.9
- PCI-45227 AUC(0-last) [5, 20]: 3,281 (154) ng/h/mL
- PCI-45227 Cmax [5, 20]: 837 (77) ng/mL
- PCI-45227: Parent AUC Ratio ([5]; male OATP2B1(-/-) mice, ibrutinib 10 mg/kg PO, no co-treatment): 1.3
- PCI-45227 AUC(0-last) [5, 21]: 2236 (160)*** ng*hr/mL
- PCI-45227 Cmax [5, 21]: 850 (96)* ng/mL
- PCI-45227: Parent AUC Ratio ([5]; male wild-type C57BL/6 mice, ibrutinib 10 mg/kg PO, no co-treatment): 2.4
- PCI-45227 AUC(0-last) [5, 22]: 3338 (239) ng*hr/mL
- PCI-45227 Cmax [5, 22]: 1252 (97) ng/mL
- PCI-45227: Parent AUC Ratio ([5]; male wild-type FVB mice, ibrutinib 10 mg/kg PO, co-treatment No Vehicle (cobicistat experiment)): 2.8
- PCI-45227 AUC(0-last) [5, 23]: 1463 (83) ng*hr/mL
- PCI-45227 Cmax [5, 23]: 578 (100) ng/mL
- PCI-45227: Parent AUC Ratio ([5]; male wild-type FVB mice, ibrutinib 10 mg/kg PO, co-treatment None (ketoconazole experiment)): 2.5
- PCI-45227 AUC(0-last) [5, 24]: 1080 (153) ng*hr/mL
- PCI-45227 Cmax [5, 24]: 333 (112) ng/mL
- PCI-45227: Parent AUC Ratio ([5]; male wild-type FVB mice, ibrutinib 10 mg/kg PO, co-treatment PEG400): 1.5
- PCI-45227 AUC(0-last) [5, 25]: 929 (164) ng*hr/mL
- PCI-45227 Cmax [5, 25]: 293 (69) ng/mL
- PCI-45227: Parent AUC Ratio ([5]; male wild-type FVB mice, ibrutinib 10 mg/kg PO, co-treatment cobicistat): 0.096
- PCI-45227 AUC(0-last) [5, 26]: 417 (60)*** ng*hr/mL
- PCI-45227 Cmax [5, 26]: 124 (34)* ng/mL
- PCI-45227: Parent AUC Ratio ([5]; male wild-type FVB mice, ibrutinib 10 mg/kg PO, co-treatment corn oil): 1.7
- PCI-45227 AUC(0-last) [5, 27]: 1124 (152)^a ng*hr/mL
- PCI-45227 Cmax [5, 27]: 308 (70) ng/mL
- PCI-45227: Parent AUC Ratio ([5]; male wild-type FVB mice, ibrutinib 10 mg/kg PO, co-treatment ketoconazole): 0.14
- PCI-45227 AUC(0-last) [5, 28]: 911 (94) ng*hr/mL
- PCI-45227 Cmax [5, 28]: 236 (37) ng/mL
- levels of PCI-45227 ([5]; mice lacking OATP2B1 vs wild-type, ibrutinib 10 mg/kg orally, P < 0.05): decreased
- levels of PCI-45227 and PCI-45227-to-ibrutinib ratio ([5]; wild-type mice, cobicistat pretreatment): significantly decreased
SMILES: Nc1ncnc2c1c(-c1ccc(Oc3ccccc3)cc1)nn2[C@@H]1CCCN(C(=O)C(O)CO)C1 (stereo partly shown) [PCI-45227]
- Clpo ([1]; oral clearance): Clpo (L/h) : 433
- Vss ([1]; steady-state volume of distribution): 9.0 L/kg
- pKa ([4]; acid dissociation constant): 4.06
- Log Po:w ([4]; octanol/water partition coefficient): 2.21
- B/P ratio ([6]; blood to plasma ratio): 0.790
- fu, plasma ([6]; unbound drug in the plasma): 0.056
